Reference: paper PMC6715681, “A high-throughput screen to identify novel synthetic lethal compounds for the treatment of E-cadherin-deficient cells” (Scientific Reports, 2019)
Like-named read-outs stand apart in the source and are kept apart here.

Experiments:
Format in all cases: cell-based, human
MCF10A CDH1^−/− cells [1] = assay: 11-point dose-response screen, cell titre blue (CTB) viability; details: for EC50: Homo sapiens, MCF-10A
Experimental: (§1) The 11-point dose-response screen evaluated a concentration range from 0.02 µM to 20 µM for both isogenic cell lines in duplicate biological replicates (Fig. 4). One limitation to metabolism-based cellular assays is that a change in read out (fluorescence, luminescence or absorbance) may not necessarily be caused by cell death and could instead result from a cessation of proliferation due to senescence or inhibited mitochondrial respiration. For this reason, a direct measurement of cell counts using cellular imaging of nuclei stained with Hoechst 33342 was also included at the 11-point screening stage. For the CTB 11-point screen all plates had acceptable Z’ values above 0.4, with the second biological replicate having 70% above 0.6 (Fig. 4A). The Z’ values for the high-content imaging (HCI) 11-point screen plates were above 0.4 for MCF10A WT, except one plate from biological replicate two with 0.396 (Fig. 4B). However, for MCF10A CDH1^−/− HCI data, only four plates were above a Z’ of 0.4 and the mean Z’ was 0.32 compared to a mean of 0.51 for MCF10A WT. A further quality metric known as the strictly standardized mean difference (SSMD)[40] is a less conservative approach for QC and a cut-off of >3 is generally used. The mean SSMD value was 7.04 for MCF10A WT and 5.27 for MCF10A CDH1^−/− plates and indicates the MCF10A CDH1^−/− HCI data was acceptable[41]. There was a good correlation between the top hits from the HCI and CTB 11-point screening with an overlap of 31 / 40 for the top 40 compounds selected from the eventual hit selection strategies.
(§2) MCF10A WT and MCF10A CDH1^−/− cells were seeded into Corning black walled, clear bottom 384-well plates (assay plates) using a multidrop 384 reagent dispenser (Thermo Fisher Scientific) and a total volume of 50 μL per well.
(§3) As we have shown MCF10A CDH1^−/− cells have a prolonged lag to log phase growth of around 24 hours, in order to achieve a similar confluence at 72 hours post seeding MCF10A WT and MCF10A CDH1^−/− cell lines were seeded at 600 cells/well and 800 cells/well, respectively. Following seeding, plates were left for one hour at RT without stacking[46] and then centrifuged at 500 × g (RCF) for one minute. Plates were then transferred to an incubator at 37 °C and 5% CO2. At 24 hours post seeding, the MiniTrak robotic liquid handling system (Perkin Elmer) was used to transfer 352 compounds per 384-well library plate to the first 22 columns of a 384-well assay plate containing cells to achieve a 10 μM final compound concentration for the pilot, primary and single-point confirmation screens. For the 11-point dose-response screen, compounds were added to columns 1–22, but excluding edge rows A and P of the library plate to reduce edge-effects (Supplementary Fig. 2). The controls of DMSO (0.2% v/v), doxorubicin (EC80) and entinostat (EC50) were added into columns 23–24 of each assay plate (Supplementary Table 1). Cell titre blue[47] was made in-house in sterile PBS from 597 μM resazurin, 78 μM methylene blue, 1 mM potassium hexacyanoferrate (III) and 1 mM potassium hexacyanoferrate (II) trihydrate. At 69 hours post seeding, 16.7% v/v CTB was added to plates and they were incubated at 37 °C for 3 hours (Supplementary Fig. 1). At 72 hours post seeding, plates were removed from the incubator and left for 30 minutes at RT to equalise the temperature across all wells of the plates and reduce fluorescence-based edge effects before reading on an EnVision (PerkinElmer) at 550 nm excitation and 590 nm emission to quantify cell viability.
(§4) Supplementary Table 1. Killing control and SL control effective concentrations.
(§5) Doxorubicin EC80 0.3 µM 0.4 µM
(§6) MCF10A WT cells were seeded at 600/well and MCF10A CDH1-/- cells at 800/well in 384-well plates. Drugs
(§7) were added at 24 hours post seeding and CTB was used as an end-point assay. Concentrations were normalized

MCF10A WT cells [2] = assay: as above; details: Homo sapiens, MCF-10A, 11-point screen; for EC50: CTB, read-out: MCF10A WT CTB EC50
Experimental: as §1, §2, §3, §4, §5, §6, §7

MCF10A CDH1^−/− cells [3] = assay: IncuCyte real-time live cell imaging (cell confluence); details: for Greatest SL difference in the slope of the growth trendline, MCF10A CDH1^−/− compared to MCF10A WT: linear growth phase; for Growth rate effect in MCF10A CDH1^−/− cells (in words): all concentrations between 2.5–20 μM, 48 hours
Experimental: (§8) Real-time viability assays were performed on the two lead compounds SLEC-8 and SLEC-11 using the two isogenic MCF10A cell lines. The IncuCyte and xCELLigence assay systems quantify cell growth over the drugging period in real-time, allowing for the assessment of even subtle growth inhibitory effects following compound treatment. The IncuCyte was used in combination with an end-point assay (nuclei counting) to give both live cell imaging and normalized cell counts for each plate.
(§9) Figure 9 IncuCyte validation data for lead compounds 8 and 11. (A) Timeline for the combined live cell imaging and end-point viability assays. Plates were seeded 4,000 cells/well as described in the Methods. (B,C) One hour following compound addition, plates were transferred to the IncuCyte. Three 4x images per well were taken every two hours for 48 hours. An EC80 dose of doxorubicin was used (Supplementary Table 1). Data shown is a representative experiment of three biological replicates. Error bars are SD. The cell confluence v1.5 was calculated using the IncuCyte software. (B) Live cell imaging for SLEC-8. (C) Live cell imaging for SLEC-11. Graphs were created in Excel.
(§10) To calculate growth rates, a trendline was fitted to the linear growth phase of each cell line. The greatest SL difference in the slope of the trendline for SLEC-8 as at 10 μM treatment with 2.0 fold difference for MCF10A CDH1^−/− cells, compared to MCF10A WT. For SLEC-11 the greatest SL difference was at 20 μM, with a 4.0 fold difference in the slope of the trendline for MCF10A CDH1^−/− cells compared to MCF10A WT (data not shown).
(§11) Cells were seeded into each well of Corning’s black walled, clear bottom 96-well plates with a total volume of 100 μL per well. Edge wells were excluded. Both isogenic cell lines were seeded into the same plate to mitigate plate-to-plate variation. Plates for real-time analysis were transferred to the xCELLigence platform (ACEA Biosciences, USA) or the IncuCyte FLR imaging system (Essen BioScience, USA) as previously described.

MCF10A WT cells [4] = assay: as above; details: 2.5–20 μM, 48 hours
Experimental: as §8, §9, §10, §11

| Structure (SMILES) | EC50 (MCF10A CDH1^−/− cells [1]; 11-point screen, CTB, read-out: MCF10A CDH1^-/- CTB EC50) [µM] | EC50 (MCF10A WT cells [2]) [µM] | Greatest SL difference in the slope of the growth trendline, MCF10A CDH1^−/− compared to MCF10A WT (MCF10A CDH1^−/− cells [3]; 10 μM treatment) [fold] | Growth rate effect in MCF10A CDH1^−/− cells (in words) (MCF10A CDH1^−/− cells [3]) | Growth reduction in MCF10A WT cells (in words) (MCF10A WT cells [4]) | Differential at 20 μM (MCF10A CDH1^−/− cells [1]; 11-point screen, MCF10A WT – MCF10A CDH1−/− POC at 20 μM) | EC50 (MCF10A CDH1^−/− cells [1]; 11-point screen (0.02–20 µM), CTB values, averaged between two biological replicates, Supplementary Table 2, read-out: MCF10A CDH1 -/- EC50) [µM] | activity at 20 µM (MCF10A WT cells [2]; viability of WT cells at highest concentration 20 μM, read-out: MCF10A WT POC at 20 μM) [%] | Greatest SL difference in the slope of the growth trendline, MCF10A CDH1^−/− compared to MCF10A WT (MCF10A CDH1^−/− cells [3]; 20 μM treatment) [fold] |
| --- | --- | --- | --- | --- | --- | --- | --- | --- | --- |
| CC(O)CNCc1ccc(OCc2ccc(Cl)cc2Cl)cc1 (stereo not drawn) [SLEC-8] | 7.66 | 17.5 | 2.0 | dose-dependent growth rate reduction | only observed at the higher concentrations | – | – | – | – |
| COc1ccc2nc(C)cc(NCc3ccc(F)cc3)c2c1 [SLEC-11, N-(4-Fluorobenzyl)-6-methoxy-2-methylquinolin-4-amine] | – | > 20 | – | dose-dependent growth rate reduction | only observed at the higher concentrations | 106.45 | 6.96 | 100 | 4.0 |
